Assay results taken from US10407445B2, “Hepatitis C virus inhibitors” (ENANTA PHARMACEUTICALS, INC., priority 2013, dated 2019).
pEC50: −log10 of the molar value.

Experiments:
Assay type in all cases: cell-based
GT2a-JFH replicon = experiment: Stable replicon assay, comparison to daclatasvir, GT2a-JFH; conditions: Hepatitis C virus
From the text: The plasmid pSG-hRlucNeo-JFH1 was generated from pSG-Neo-JFH1 (Kato et al. 2003, Gastroentrology 125:1808-1817). A fragment containing the JFH-1 5′ NTR-hRluc-Neo gene and two unique restriction sites (AgeI and PmeI) was synthesized (Integrated DNA Technologies, Coralville, Iowa). The resulting plasmid was digested with AgeI and PmeI and the excised fragment (5′NTR-hRluc-Neo) was ligated into pSG-Neo-JFH1 digested with the same enzymes to generate pSG-hRlucNeo-JFH1. To allow expression of heterologous NS5A sequences, an NS5A shuttle vector was generated from pSG-Neo-JFH1, in which the entire coding sequence of NS5A plus the first eight codons of NS5B were replaced with an AfeI restriction site. This was done by Infusion cloning (Clontech, Mountain View, Calif.) from two PCR products that were generated using pSG-Neo-JFH1 as a template and the following primer pairs: […]
Stable HCV replicon cell lines were grown in complete media (Dulbecco's modified Eagle medium [DMEM], 2 mM L-glutamine, 0.1 mM essential amino acids, 1 mM sodium pyruvate, 10% fetal bovine serum) with the addition 500 μg/ml […] (G418). […] For stable and transient replicon assays, luciferase activity of compound-treated cells was measured relative to DMSO-treated cells after 72 h incubation using RENILLA-GLO™ Luciferase Assay (Promega). […]

[1] = test system: HCV genotype 1a replicon, NS5A M28V Y93C; experiment: Transient replication assay, GT1a NS5A M28V Y93C; conditions: Hepatitis C virus
[2] = test system: HCV genotype 1a replicon, NS5A Q30E; experiment: Transient replication assay, GT1a NS5A Q30E; conditions: Hepatitis C virus
[3] = test system: HCV genotype 1a replicon, NS5A Q30R H58D; experiment: Transient replication assay, GT1a NS5A Q30R H58D; conditions: Hepatitis C virus
[4] = test system: HCV genotype 1a replicon, NS5A K24E Q30R; experiment: Transient replication assay, GT1a NS5A K24E Q30R; conditions: Hepatitis C virus
GT1a-H77 replicon = experiment: Stable replicon assay, comparison to daclatasvir, GT1a-H77; conditions: Hepatitis C virus; Replicon GT1a-H77, NS5A genotype 1a
Description: Stable HCV replicon cell lines were grown in complete media (Dulbecco's modified Eagle medium [DMEM], 2 mM L-glutamine, 0.1 mM essential amino acids, 1 mM sodium pyruvate, 10% fetal bovine serum) with the addition 500 μg/ml […] (G418). Huh7-lunet cells were maintained in the same medium without the addition of G418. Cells were routinely passaged at a dilution of 1:5 two times per week. For stable replicon assays (GT1a-H77, GT1b-Con1, GT2a-JFH, GT2a-J6, GT2a-2b-MD2b, GT2a-2b-J8, GT2a-3a-S52, GT3a-552, GT4a-ED43, GT2a-5a-SA13, GT2a-6a-EUKH2, GT2a-6a-HK6a, and GT2a-7a-QC69), an 8-point 3-fold or half-log dilution series of compound was transferred into three replica 96-well plates containing 1×10^4 cells per well in phenol red-free complete media without G418. For the transient replication assay, Huh7-lunet cells in ice-cold phosphate buffered saline (PBS) were electroporated (Bio-Rad Gene pulser: 950 uF, 270V) with 10 μg purified in vitro transcribed HCV replicon RNA, followed by resuspension in phenol red-free complete media without G418 and plating (1×10^4 cells in 200 μL media/well) into three replica 96-well plates prior to compound addition (1 μl compound per well). For stable and transient replicon assays, luciferase activity of compound-treated cells was measured relative to DMSO-treated cells after 72 h incubation using RENILLA-GLO™ Luciferase Assay (Promega). […]

[5] = test system: HCV genotype 1a replicon, NS5A K24G; experiment: Transient replication assay, GT1a NS5A K24G; conditions: Hepatitis C virus
[6] = test system: HCV genotype 1a replicon, NS5A Q30R Y93C; experiment: Transient replication assay, GT1a NS5A Q30R Y93C; conditions: Hepatitis C virus
[7] = test system: HCV genotype 1a replicon, NS5A K24E Q30K; experiment: Transient replication assay, GT1a NS5A K24E Q30K; conditions: Hepatitis C virus
[8] = test system: HCV genotype 1a replicon, NS5A L31M; experiment: Transient replication assay, GT1a NS5A L31M; conditions: Hepatitis C virus

Row | SMILES | pEC50 (GT2a-JFH replicon) | pEC50 [1] | pEC50 [2] | pEC50 [3] | pEC50 [4] | pEC50 (GT1a-H77 replicon) | pEC50 [5] | pEC50 [6] | pEC50 [7] | pEC50 [8]
1 | COC(=O)N[C@H](C(=O)N1C[C@]2(CCCOC2)C[C@H]1c1ncc(-c2ccc(-c3ccc4c(ccc5nc([C@@H]6C[C@@H]7CCC[C@@H]7N6C(=O)[C@@H](NC(=O)OC)C(C)C)[nH]c54)c3)cc2)[nH]1)C(C)C [Compound 16] | 11.40 | 9.00 | 9.13 | 8.55 | 8.74 | 11.15 | 11.68 | 8.85 | 8.10 | 10.97
2 | COC(=O)N[C@H](C(=O)N1CCC[C@H]1c1nc(-c2ccc(-c3ccc(-c4c[nH]c([C@@H]5CCCN5C(=O)[C@@H](NC(=O)OC)C(C)C)n4)cc3)cc2)c[nH]1)C(C)C [Daclatasvir, reference compound] | 11.10 | 8.46 | 7.09 | 6.08 | 8.46 | 10.22 | 10.70 | 7.59 | 7.70 | 9.17
